Patent US7399639B2, “Sensors, and methods of making and using the same” (Massachusetts Institute of Technology, priority 2003, dated 2008)
Values joined by “and” are separate entries in the source; they are usually repeats but may differ in a detail not shown here. Equal entries are not always repeated. Where two headings read alike, the source gives them in different places.

Experiments:
[1] = Quantum yields / fluorescence emission against fluorescein standard; type: physicochemical; settings: for λmax (Em, nm): HEPES 50 mM, pH 7.5, KCl 100 mM; for Φ: fluorescein standard
Experimental: (§1) The above results were obtained using the following experimental methods. For all fluorescence experiments, the glassware was washed sequentially with 20% HNO3, deionized water, and ethanol before use. Purified water (resistivity […]) was obtained from a Millipore Milli-Q water purification system. Fluorophore stock solutions in DMSO were made up to concentrations of 1 mM and kept at 4° C. in 100-500 μL aliquots. Portions were thawed and diluted to the required concentrations immediately prior to each experiment. Fluorescence and absorption data were acquired in HEPES buffer (50 mM, pH 7.5, KCl 100 mM) except where otherwise noted. Solutions were transferred to clean, dry propylene containers for storage, and filtered through 0.25 μm syringe filters before data acquisition. Fluorescence spectra were measured from 475 nm to 650 nm. All measurements were performed in triplicate.
Quantum Yields. Quantum yields were calculated by recording UV-vis spectra of the fluorophore under study and a 1 μM fluorescein standard in 0.1 N NaOH to determine the wavelength where sample and fluorescein absorption were equal. The fluorescence spectrum of each was then recorded, exciting at the wavelength determined by uv-vis spectra comparison. The integrated emission of the sample was normalized to the fluorescein standard and multiplied by the standard quantum yield of 0.95. Brannon, J. H.; Magde, D. J. Phys. Chem. 1978, 82, 705-709.

[2] = Extinction coefficients / absorption spectra in HEPES buffer; type: physicochemical; settings: for λmax (Abs, nm): HEPES 50 mM, pH 7.5, KCl 100 mM
Experimental: as §1
Extinction Coefficients. A 2 mL portion of HEPES buffer was titrated with 2 μL aliquots of 1 mM fluorophore stock solution and the absorption measured at each concentration. The absorbance at the maximum was plotted as a function of concentration, and the slope was taken as the extinction coefficient. The procedure was repeated using 1.9 mL portions of HEPES buffer containing 100 μL aliquots of 10 mM ZnCl2 solution.

HeLa cells = assay: Cell permeability studies using Zn-pyrithione, fluorescence microscopy; type: cell-based; settings: 5 μM ligand 30 min RT, 10 μM Zn^2+-pyrithione
Experimental: FIG. 10 depicts phase contrast (A) and fluorescence microscopy (B) visualization of HeLa cells treated with the ligands of Formula 101, 103, and 31 in the absence of zinc. Cells were bathed in 5 μM ligand for 30 min at RT, followed by untreated PBS for 10 min.
FIG. 11 depicts phase contrast (A) and fluorescence microscopy (B) visualization of HeLa cells treated with the ligands of Formula 101, 103, and 31 in the presence of zinc. Cells were bathed in 5 μM ligand for 30 min at RT, followed by 10 μM Zn^2+-pyrithione.
FIG. 12 depicts phase contrast (A) and fluorescence microscopy (B) visualization of HeLa cells treated with the ligands of Formula 100, 102, and 31 in the absence of zinc. Cells were bathed in 5 μM ligand for 30 min at RT, followed by untreated PBS for 10 min.
FIG. 13 depicts phase contrast (A) and fluorescence microscopy (B) visualization of HeLa cells treated with the ligands of Formula 100, 102, and 31 in the presence of zinc. Cells were bathed in 5 μM sensor for 30 min at RT, followed by 10 μM Zn^2+-pyrithione.

[3] = metal-free; reported elsewhere; cited from earlier work
[4] = reported elsewhere; cited from earlier work
[5] = UV-visible spectroscopy of Zinpyr dyes (excitation maxima, molar absorptivity); type: physicochemical; settings: for ε: at excitation maximum
Experimental: (§2) General Spectroscopic Methods. PIPES (piperazine-N,N′-bis(2-ethanesulfonic acid) from Calbiochem, KCl (99.997%), and ZnCl2 (99.999%) are purchased and used as received. All experiments for this Example Eight, with the exception of the pKa experiment, are conducted under stimulated physiological conditions using 50 mM PIPES, 100 mM KCl adjusted to pH 7 via drop-wise addition of KOH. Millipore water is used for all aqueous solutions, which are filtered through a 0.2 μm cellulose filter prior to use (buffered dye solutions should not be put through the filters because the dyes will get stuck). An Orion glass electrode, which is calibrated prior to each use, is used to determine solution pH. The accuracy of each micropipette is verified prior to use. Zinc solutions are prepared from 100 mM and 10 mM stock solutions in water (pH 5). The concentrations of the stock solutions is verified by spectrophotometric titration with 2,2′:6′,2″-terpyridine, which is was performed a minimum of three times per solution. In a typical titration, 0.5 μL aliquots of a 10 mM (nominal) Zn(II) solution in water is added to a 10 μM solution of terpyridine in 50 mM PIPES, 100 mM KCl, pH 7 prepared from a 100 mM stock solution in DMSO. The equivalence point at 321 nm and at 291 nm is determined and used to calculate the Zn(II) concentration. Stock solutions of Zinpyr-5 (0.76 mM) and Zinpyr-6 (0.41 mM) in DMSO are prepared, stored at −25° C., and thawed in the dark immediately prior to use. All spectral data are manipulated with the KaleidaGraph software package.
UV-Visible Spectroscopy. Excitation spectra are obtained using a Cary IE scanning spectrophotometer controlled by a Pentium PC running the manufacturer supplied software program. A circulating water bath is used during all acquisitions to maintain the temperature at 25.0° C.±0.1° C. All data are collected using a 600 nm/min scan speed and a 1 nm data interval. […] Molar absorptivity values are determined from a minimum of three titrations over a concentration range of 10 μM to 1 μM. […]

[6] = Zn(II) binding studies (fluorescence spectroscopy), dual-metal buffering system, Zinpyr dyes; settings: titration with dual-metal buffering system, 0.17 nM to 25 nM free Zn(II)
Experimental: General Spectroscopic Methods. PIPES (piperazine-N,N′-bis(2-ethanesulfonic acid) from Calbiochem, KCl (99.997%), and ZnCl2 (99.999%) are purchased and used as received. All experiments for this Example Eight, with the exception of the pKa experiment, are conducted under stimulated physiological conditions using 50 mM PIPES, 100 mM KCl adjusted to pH 7 via drop-wise addition of KOH. Millipore water is used for all aqueous solutions, which are filtered through a 0.2 μm cellulose filter prior to use (buffered dye solutions should not be put through the filters because the dyes will get stuck). An Orion glass electrode, which is calibrated prior to each use, is used to determine solution pH. The accuracy of each micropipette is verified prior to use. Zinc solutions are prepared from 100 mM and 10 mM stock solutions in water (pH 5). […] The equivalence point at 321 nm and at 291 nm is determined and used to calculate the Zn(II) concentration. […]
Zn(II) Binding Studies (Fluorescence Spectroscopy). The dissociation constants, Kd, for Zn(II) binding were determined using a dual-metal buffering system, which affords concentrations of free Zn(II) in the nM range. […] The response was quantified by integrating the emission intensity from 505-650 nm and normalizing. […]
The binding affinities for Zinpyr-5 and Zinpyr-6 were determined using the dual-metal buffering system previously described. […]

[7] = Metal ion selectivity measurements of Zinpyr dyes; settings: 1 μM Zinpyr, divalent first-row transition metals and Cd(II)
Experimental: Metal Ion Selectivity Measurements. The metal ion selectivity of Zinpyr-5 and Zinpyr-6 for a number of divalent first-row transition metals, in addition to cadmium, is investigated using fluorescence spectroscopy. Aqueous metal ion solutions for Ca(II), Mg(II), Mn(II), Co(II), Ni(II) and Cd(II) are prepared from the chloride salts and Millipore water. The Cu(II) solution are prepared from copper sulfate and Fe(II) solutions are prepared immediately before use with ferrous ammonium sulfate and Millipore water that was thoroughly purged with Ar. In a typical experiment, 15 μL of a ˜10 mM metal solution is added to a 1 μM Zinpyr solution (3 mL) and the emission spectra is recorded with excitation at 498 nm (Zinpyr-5) or 500 nm (Zinpyr-6). […] of 10 mM ZnCl2 is then added and the emission spectra is obtained. The spectra are integrated from 505-650 nm (Zinpyr-5) or 450-650 nm (Zinpyr-6) and normalized.

[8] = Protonation constants that affect fluorescence of Zinpyr dyes; type: physicochemical; settings: for pKa: aqueous solution of 100 mM KCl, 10 mM KOH, Zinpyr-6 value estimated from preliminary results
Experimental: Studies of Protonation Constants that Effect Fluorescence. The apparent protonation constants that affect fluorescence are determined by plotting the integrated emission intensity versus pH from ˜12.5 to 2. In a typical experiment, a 30 mL solution of 1 μM Zinpyr in 100 mM KCl, 10 mM KOH is adjusted to pH 12.5 by drop-wise addition of KOH. Aliquots of 6 N, 2 N, 1 N, 0.5 N, 0.5 N, 0.1 N, and 0.01 N HCl are added to achieve pH changes of approximately […], and the emission spectrum is gathered at each interval. The overall volume change for each experiment is monitored so as not to exceed ˜3%. Excitation is provided at 498 nm for Zinpyr-5 and at 500 nm for Zinpyr-6. Data is integrated from 505 nm to 650 nm, normalized and plotted against pH. The data were fit to the non-linear expression previously described. Godwin, H. A.; Berg, J. M. J. Am. Chem. Soc. 1996, 118, 6514-6515.

[9] = Quantum yield and emission measurements of Zinpyr dyes; type: physicochemical
Experimental: as §2
Fluorescence Spectroscopy. Emission spectra are obtained using a Hitachi F-3010 spectrofluorimeter linked to a Pentium PC running the SpectraCalc software package. A 150 W Xe lamp (Ushio Inc.) operating at a current of 5 A provides the excitation. A rhodamine quantum counter is used to normalize the spectra for excitation intensity, and manufacturer-supplied correction curves are used to normalize the emission spectra. Manufacturer supplied photomultiplier curves are used to correct for emission intensity. A circulating water bath is used during all experiments to regulate the temperature at 25.0° C.±0.1° C. All spectra are obtained using 3 nm slit widths and a 240 nm/min scan speed, and all samples are contained in a 1 cm×1 cm quartz cuvette with a 3.5 mL volume. All measurements are made in triplicate, with the exception of the Zinpyr-6 pKa titration, and on different days to assure the authenticity of the results.
Quantum Yield Measurements. The quantum yields of Zinpyr-5 and Zinpyr-6 are determined using a solution of fluorescein in 0.1 N NaOH (φ=0.95) as a reference. In a typical experiment, a 6 mL solution of 1 μM Zinpyr is prepared. For metal-free studies, 6 μL of 100 mM K4EDTA is added to chelate any adventitious metal ions. To determine the quantum efficiencies of the metal-bound dyes, either 2 μL (Zinpyr-5) or 6 μL (Zinpyr-6) of a 100 mM ZnCl2 stock solution is added to a 1 μM Zinpyr solution. The concentration of the reference solution is adjusted to match the excitation spectra of the Zinpyr dye, and the appropriate excitation wavelength is determined from where the reference and probe excitation spectra intersect. Excitation is provided at 497 nm (Zinpyr-5 and Zinpyr-6, metal-free), 491 nm (Zinpyr-5, metal-bound), or 493 (Zinpyr-6, metal-bound). Emission spectra are integrated from 450-650 nm and the quantum yields were calculated using the standard equation. Godwin, H. A.; Berg, J. M. J. Am. Chem. Soc. 1996, 118, 6514-6515.

[10] = Affinity of compound 30 for Zn2+; type: binding
[11] = metal-free, 50 mM PIPES, 100 mM KCl, pH 7

With `O=C(O)c1ccc2c(c1)C(=O)OC21c2cc(Cl)c(O)c(CN(Cc3ccccn3)Cc3ccccn3)c2Oc2c1cc(Cl)c(O)c2CN(Cc1ccccn1)Cc1ccccn1` [Formula 101] the Brightness ([1]; +Zn^2+ complex) was 5.5 × 10^4, the “λmax (Em, nm)” value ([1]; +Zn^2+ complex) was 532 nm and the Φ ([1]; +Zn^2+ complex) was 0.62. The Brightness ([1]; free ligand) was 1.4 × 10^4, the “λmax (Em, nm)” value ([1]; free ligand) was 536 nm and the Φ ([1]; free ligand) was 0.17. For the same compound, the εmax ([2]; +Zn^2+ complex) was 88000 M⁻¹ cm⁻¹, the “λmax (Abs, nm)” value ([2]; +Zn^2+ complex) was 509 nm and the εmax ([2]; free ligand) was 81000 M⁻¹ cm⁻¹. For the same compound, the “λmax (Abs, nm)” value ([2]; free ligand) was 520 nm and the uptake into cells (HeLa cells) was “not taken up by the cell”.

In the case of `COc1ccc(NCc2c(O)ccc3c(-c4ccccc4C(=O)O)c4cc(Cl)c(=O)cc-4oc23)c(CN(Cc2ccccn2)Cc2ccccn2)c1` [Zinpyr-3], the quantum efficiency [3] is listed as 0.04 and the “fluorescence change upon addition of Zn(II)” value [4] is listed as “negligible”.

With `O=C(O)c1ccccc1-c1c2cc(Cl)c(=O)cc-2oc2c(CNc3ccc(Cl)cc3CN(Cc3ccccn3)Cc3ccccn3)c(O)ccc12` [Zinpyr-6] the excitation maximum ([5]; Zn(II) bound) was 495 nm, the ε ([5]; Zn(II) bound) was 98,000 M^−1 cm^−1 and the ε ([5]; metal-free) was 88,600 M^−1 cm^−1. The “increase in integrated emission” value [6] was 2.5- to 3 fold and ~3 fold, the metal ion selectivity [7] was “Zn(II) and Cd(II) selective” and the “pH at which maximum emission is reached” value ([8]; Zinpyr-6 data preliminary) was ~5. The pKa ([8]; read-out: apparent pKa, first protonation event (fluorescence enhancement; tertiary amine)) was ~10, the pKa ([8]; read-out: apparent pKa, second protonation event (fluorescence enhancement; aniline nitrogen)) was ~6.4 and the pKa ([8]; read-out: apparent pKa, third protonation event (fluorescence quenching)) was ~4.6. For the same compound, the “increase in brightness upon Zn(II) coordination” value [9] was 3.8 fold and 3.7 fold, the “increase in quantum efficiency upon addition of excess Zn(II)” value [9] was 3.4 fold and the “brightness (φ×ε)” value ([9]; Zn(II) bound) was 33,000 M^−1 cm^−1. For the same compound, the emission maximum ([9]; Zn(II) bound) was 515 nm, the quantum efficiency ([9]; Zn(II) bound) was 0.34 and the “brightness (φ×ε)” value ([9]; metal-free) was 8,900 M^−1 cm^−1. The emission maximum [9, 11] was 519 nm and the quantum efficiency [9, 11] was 0.10.

With `O=C(O)c1ccccc1-c1c2cc(Cl)c(=O)cc-2oc2cc(N(Cc3ccccn3)Cc3ccccn3)ccc12` [compound 30, 9-(o-Carboxyphenyl)-2-chloro-6-[bis(2-pyridylmethyl)amino]-3-xanthanone] the “affinity for Zn^2+” value [10] was “weak”.
